Data as given in patent publication US11407711B2, “Benzamide compound and use thereof” (METISA BIOTECHNOLOGY CO., LTD., priority 2018, dated 2022).
Like-named read-outs stand apart in the source and are kept apart here.

Columns and labels:
Type in all cases: in vivo
armyworm = test: Insecticidal activity against armyworm (Airbrush spray on maize blade segments); details: 72 h, read-out: fatality rate against armyworm
Procedure: (§1) The compound to be tested was dissolved by a mixed solvent of acetone/methanol (1:1), and then diluted by water containing 0.1% (wt) Tween 80 to the required concentration.
(§2) An Airbrush spray method was adopted for the determination of the activity, with armyworm, Plutella xylostella and Chilo suppressalis as targets.
Determination method: maize blades were cut into 2 cm (length) segments; with the pressure of Airbrush spray being 10 psi (about 0.7 kg/cm^2), both sides of each blade segment were sprayed with the amount of 0.5 ml. After dried in the shade, each segment was inoculated with 10 3rd-instar larvaes, 3 repeats for each segment. And then, the treated segments were put into an observation room (25° C., relative humidity: 60-70%) for cultivation; the number of the survivals was surveyed 1 d, 2 d and 3 d after administration, and then the death rate was calculated.

Plutella xylostella = test: Insecticidal activity against Plutella xylostella (Airbrush spray on cabbage leaf discs)
Procedure: as §1, §2
Determination method: cabbage blades were punched into 2 cm (diameter) leaf discs by a puncher; with the pressure of Airbrush spray being 10 psi (about 0.7 kg/cm^2), both sides of each leaf disc were sprayed with the amount of 0.5 ml. After dried in the shade, each leaf disc was inoculated with 10 3rd-instar larvaes, 3 repeats for each leaf disc. And then, the treated leaf discs were put into an observation room (25° C., relative humidity: 60-70%) for cultivation; the number of the survivals was surveyed 1 d, 2 d and 3 d after administration, and then the death rate was calculated.

Chilo suppressalis = test: Insecticidal activity against Chilo suppressalis (spray on rice seedlings, stems fed to larvae)
Procedure: as §1, §2
Determination method: 1) preparation of rice seedlings: rice was cultivated in small plastic cups (diameter: 4.5 cm and height: 4 cm) at a constant temperature room (temperature: 26-28° C., relative humidity: 60-80% around and illumination: 16 hL:8 hD), after the rice grew to a 4-5 leaf stage, vigorous and uniform-growth rice seedlings were selected and treated with an insecticide, 3 repeats for each treatment. 2) Preparation of pests for test: 3rd-instar larvaes of Chilo suppressalis fed continuously in the room. 3) Inoculation of pests on rice stems by spray. The whole plants of the rice seedlings were sprayed by a spray method uniformly, with the dose of 15 ml for each treatment. The blank control was treated first, and the above operation was repeated in an order of lower to higher test concentration. After sprayed, rice seedlings were placed in the shade to dry the insecticide liquor, and then stalks about 5 cm above the basal part of the stems were cut to be fed to the pests for test. Glass petri dishes (diameter: […]) were prepared, cushioned by filter paper at the bottom thereof, and subjected to water addition for moisturizing; about 20 pieces of rice stems were put in each dish and inoculated with 10 larvaes; then the petri dishes were closed by non-woven fabrics and placed in a constant temperature room for culture. The number of survivals was surveyed 3 d after administration.

[1] = Plutella xylostella, foliar, 72 h, read-out: Fatality rate (%, 3 d after administration) 0.5 mg/L, Table 73, 0.5 mg/L, 3 d after administration
[2] = Plutella xylostella, foliar, 72 h, read-out: Fatality rate (%, 3 d after administration) 1 mg/L, Table 73, 1 mg/L, 3 d after administration
[3] = Plutella xylostella, foliar, 72 h, read-out: Fatality rate (%, 3 d after administration) 10 mg/L, Table 71, 10 mg/L, 3 d after administration
[4] = Plutella xylostella, foliar, 72 h, read-out: fatality rate against Plutella xylostella, 0.5 mg/L, 3 d after administration
[5] = Plutella xylostella, foliar, 72 h, read-out: fatality rate against Plutella xylostella, 1 mg/L, 3 d after administration
[6] = Chilo suppressalis, 72 h, read-out: fatality rate against Chilo suppressalis
[7] = 0.1 mg/L, 3 d after administration, 3rd-instar larvae
[8] = 0.5 mg/L, 3 d after administration, 3rd-instar larvae
[9] = Plutella xylostella, foliar, 72 h, 1 mg/L, 3 d after administration, read-out: fatality rate against Plutella xylostella
[10] = Plutella xylostella, foliar, 72 h, Table 71, 10 mg/L, 3 d after administration, read-out: Fatality rate (%, 3 d after administration) 10 mg/L
[11] = Chilo suppressalis, 72 h, 4 mg/L, survivals surveyed 3 d after administration, read-out: fatality rate against Chilo suppressalis
[12] = Chilo suppressalis, 72 h, 40 mg/L, survivals surveyed 3 d after administration, read-out: fatality rate against Chilo suppressalis

| SMILES | pest or weed control at 0.1 µg/mL (armyworm) [%] | pest or weed control at 0.5 µg/mL (armyworm) [%] | pest or weed control at 0.5 µg/mL (Plutella xylostella; [1]) [%] | pest or weed control at 1 µg/mL (Plutella xylostella; [2]) [%] | pest or weed control at 10 µg/mL (Plutella xylostella; [3]) [%] | pest or weed control at 0.5 µg/mL (Plutella xylostella; [4]) [%] | pest or weed control at 1 µg/mL (Plutella xylostella; [5]) [%] | pest or weed control at 4 µg/mL (Chilo suppressalis; [6]) [%] | pest or weed control at 40 µg/mL (Chilo suppressalis; [6]) [%] | pest or weed control at 0.1 µg/mL (armyworm; [7]) [%] | pest or weed control at 0.5 µg/mL (armyworm; [8]) [%] | pest or weed control at 1 µg/mL (Plutella xylostella; [9]) [%] | pest or weed control at 10 µg/mL (Plutella xylostella; [10]) [%] | pest or weed control at 4 µg/mL (Chilo suppressalis; [11]) [%] | pest or weed control at 40 µg/mL (Chilo suppressalis; [12]) [%] | further results |
| --- | --- | --- | --- | --- | --- | --- | --- | --- | --- | --- | --- | --- | --- | --- | --- | --- |
| N#CCN(C(=O)c1cccc(NC(=O)c2ccccc2)c1F)c1c(Br)cc(C(F)(C(F)(F)F)C(F)(F)F)cc1Br [Compound 16.321] | ≥ 90 | ≥ 90 | 100 | 100 | 100 | ≥ 90 | ≥ 90 | ≥ 90 | ≥ 90 | – | – | – | – | – | – | – |
| N#CCN(C(=O)c1cccc(NC(=O)c2ccccc2)c1F)c1c(Cl)cc(C(F)(C(F)(F)F)C(F)(F)F)cc1Cl [Compound 17.321] | – | – | – | – | – | – | – | – | – | ≥ 90 | ≥ 90 | ≥ 90 | 100 | ≥ 90 | ≥ 90 | – |
| Cc1cc(C(F)(C(F)(F)F)C(F)(F)F)cc(Br)c1N(CC#N)C(=O)c1cccc(NC(=O)c2ccccc2)c1F [Compound 20.321] | – | – | – | – | – | – | – | – | – | – | ≥ 90 | ≥ 90 | 100 | – | ≥ 90 | pest or weed control at 1 µg/mL (Plutella xylostella; Plutella xylostella, foliar, 72 h, Table 72, 1 mg/L, 3 d after administration, read-out: Fatality rate (%, 3 d after administration) 1 mg/L): 93.9%; Fatality rate (%, 3 d after administration) 5 mg/L (Plutella xylostella; Table 72, 5 mg/L, 3 d after administration): 100% |
| N#CCN(C(=O)c1cccc(NC(=O)c2ccccc2)c1F)c1c(Cl)cc(C(F)(C(F)(F)F)C(F)(F)F)cc1Br [Compound 21.321] | – | – | – | – | – | – | – | – | – | ≥ 90 | ≥ 90 | ≥ 90 | 100 | ≥ 90 | ≥ 90 | – |
| CN(C(=O)c1ccccc1)c1cccc(C(=O)N(CC#N)c2c(Br)cc(C(F)(C(F)(F)F)C(F)(F)F)cc2Br)c1F [Compound 30.321] | ≥ 90 | ≥ 90 | 100 | 100 | 100 | ≥ 90 | ≥ 90 | ≥ 90 | ≥ 90 | – | – | – | – | – | – | pest or weed control at 0.05 µg/mL (armyworm): ≥ 90%; pest or weed control at 0.5 µg/mL (Plutella xylostella; Plutella xylostella, foliar, 72 h, read-out: Fatality rate (%, 3 d after administration) 0.5 mg/L, Table 74, 0.5 mg/L, 3 d after administration): 100%; pest or weed control at 0.05 µg/mL (Plutella xylostella; Plutella xylostella, foliar, 72 h, read-out: fatality rate against Plutella xylostella, 0.05 mg/L, 3 d after administration): ≥ 90%; Fatality rate (%, 3 d after administration) 0.05 mg/L (Plutella xylostella; Table 74, 0.05 mg/L, 3 d after administration): 100%; Fatality rate (%) 1 d after administration (Plutella xylostella; Table 75, fast-acting efficacy, dose 0.5 mg/L, 1 d after administration): 90%; Fatality rate (%) 2 d after administration (Plutella xylostella; Table 75, fast-acting efficacy, dose 0.5 mg/L, 2 d after administration): 100%; Fatality rate (%) 3 d after administration (Plutella xylostella; Table 75, fast-acting efficacy, dose 0.5 mg/L, 3 d after administration): 100%; pest or weed control at 1 µg/mL (Chilo suppressalis; [6]): ≥ 90%; Fatality rate (%, 3 d after administration) 1.25 mg/L (Chilo suppressalis; Table 77, 1.25 mg/L, 3 d after administration): 93.5%; Fatality rate (%, 3 d after administration) 2.5 mg/L (Chilo suppressalis; Table 77, 2.5 mg/L, 3 d after administration): 100%; Fatality rate (%, 3 d after administration) 5 mg/L (Chilo suppressalis; Table 77, 5 mg/L, 3 d after administration): 100% |
| N#CCN(C(=O)c1ccccc1)c1cccc(C(=O)N(CC#N)c2c(Br)cc(C(F)(C(F)(F)F)C(F)(F)F)cc2Br)c1F [Compound 58.321] | ≥ 90 | ≥ 90 | 98 | 100 | 100 | ≥ 90 | ≥ 90 | ≥ 90 | ≥ 90 | – | – | – | – | – | – | – |
